Test results published in publication PMC9234961 (Journal of Medicinal Chemistry, 2022).
≈ marks a conversion by molar mass, not a printed value. Where “and” joins values, the source holds several entries; their conditions need not be identical. Equal values may be shown once. Read-outs that look alike come from different tables or passages of the source. Marks after values point to notes of the source that are not given here.

Assays:
[1] = target: endogenous BCL6 in OCI-Ly1 cells (Homo sapiens, UniProt P41182); test: cell-based
HPLC solubility assay = format: physicochemical; settings: solubility by HPLC in PBS buffer and 1% DMSO at pH 7.4
Protocol: 11 4.2 HPLC solubility assay
10 µL of 10 mM DMSO stock solution was pipetted into a micro centrifuge tube (1.5 mL, Sarstedt part-no.
seconds on vortex mixer (Grant-bio vortex mixer) to create 100 µM solution with 1% DMSO. Following shaking of the suspension on a Bohdan Shaker at 500 rpm for 2 hours at room temperature (20 °C), it was
The concentration of the solubilized compound in solubility sample is measured by HPLC with UV detection using an external standard which was prepared by pipetting 10 µL of the same batch of
The detail of the HPLC method is as following: chromatographic separation at 30°C is carried out over a 5 minute gradient elution method from 90:10 to 10:90 water:methanol (both modified with 0.1% formic acid) at a flow rate of 1.5 mL/min. Calibration curve is prepared by injecting 0.5, 2.5, and 5 µL of compound

[2] = logD7.4 assay (Chrom log D method); format: physicochemical; settings: reversed-phase HPLC on Phenomenex Luna C8 column, pH 7.4, read-out: Measured logD7.4
Procedure, shortened: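 Samples at 1mM in 10% DMSO/90% Trizma buffer (100mM Trizma in 75/25 methanol/water) injected onto a C8 column at 30°C under gradient elution at 2 mL/min. Retention calibrated against calibration and validation standards.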

human BCL6 BTB domain [3] = target: T1, human BCL6 BTB domain (Homo sapiens, UniProt P41182)
in vitro [4] = format: in vitro ADME; settings: fraction unbound in OCI-Ly1 DC50 assay medium
in vitro [5] = format: in vitro ADME; settings: pH 7.4, 10 µM, 16 h at 30 °C
[6] = Microsomal clearance assay (HLM); format: in vitro ADME; settings: both sexes, pH 7.4; human liver microsomes, 1 μM compound
Protocol: (§1) 6. Supplementary experimental: in vitro DMPK assays
(§2) 6.1 Microsomal clearance assay
(§3) Microsomal clearance was determined in female CD1 mice, female Sprague–Dawley rats, and mixed gender human liver microsomes obtained from BioIVT (Peterborough, U.K.) following incubation of 1 μM compound at 37 °C in 0.5 mg/mL microsomal protein, 3 mmol/L MgCl2, 1 mmol/L NADPH, 2.5 mmol/L and 10 mmol/L phosphate buffer (pH 7.4) (all purchased from Sigma-Aldrich, Gillingham, U.K). Reactions were started by addition of the cofactors following 10 min preincubation of microsomes with test compound and were terminated at −1, 0, 5, 10, 15, and 30 min with three volumes of ice-cold methanol containing internal standard. Samples were centrifuged at 2800g for 30 min at 4 °C and the supernatants analyzed.
(§4) Control incubations were prepared as above with omission of cofactors. Compound measurements were […]
(§5) separation with a 3 min gradient of 0.1% formic acid in methanol on a Kinetex C18, 50 × 2.1 mm 2.6 μm UPLC column (Phenomenex, Macclesfield, UK). […]

[7] = Microsomal clearance assay (RLM); format: in vitro ADME; settings: female, Sprague-Dawley, pH 7.4; rat liver microsomes, 1 μM compound
Protocol: as §1, §2, §3, §4, §5

[8] = Microsomal clearance assay (MLM); format: in vitro ADME; settings: mouse liver microsomes, 1 μM compound
Procedure, shortened: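 Compound (1 µM) was incubated at 37 °C with female CD1 mouse, female Sprague–Dawley rat or mixed-gender human liver microsomes (0.5 mg/mL protein) in 10 mmol/L phosphate, pH 7.4, with 3 mmol/L MgCl2. After 10 min preincubation, 1 mmol/L NADPH started the reaction. Samples taken up to 30 min were methanol-quenched and analysed by LC-MS.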

human BCL6 BTB domain [9] = target: T1, human BCL6 BTB domain; test: biochemical; settings: BCL6 TR-FRET IC50 individual replicates, single replicate values
in vitro [10] = format: in vitro ADME; settings: BALB/c; mouse plasma, rapid equilibrium dialysis; read-out: mouse (BALB\c) PPB (converted)
NMR solubility assay = format: physicochemical; settings: kinetic solubility by NMR in HEPES buffer at pH 8, 4% DMSO; read-out: Aq. Sol.
[11] = In vivo pharmacokinetic study in Balb/C mice; parameters: species or system mouse; settings: female Balb/C mice
[12] = OCI-Ly1, read-out: MSD degrader assay [OCI-Ly1] Dmax, mean maximal degradation of BCL6, OCI-Ly1 cells, 2 h

Cn1c(=O)c2c(c3cc(Nc4nc(N5CCC(F)(F)[C@@H](CO)C5)ncc4Cl)ccc31)N[C@@H](C1CC1)C(F)(F)CO2 [9a, (S)-10-((5-Chloro-2-((R)-4,4-difluoro-3-(hydroxymethyl)piperidin-1-yl)pyrimidin-4-yl)amino)-2-cyclopropyl-3,3-difluoro-7-methyl-1,2,3,4-tetrahydro-[1,4]oxazepino[2,3-c]quinolin-6(7H)-one]
Dmax ([1]; OCI-Ly1, read-out: MSD degrader assay [OCI-LY1] Dmax individual replicates, single replicate values): 76.7% | Dmax [1, 12]: 82.8% | degradation of BCL6 (in words) ([1]; OCI-Ly1 MSD assay): fully degraded the protein | MSD degrader assay [OCI-Ly1] Dmax ([1]; mean maximal degradation of BCL6, OCI-Ly1 cells, 2 h): 83% | MSD degrader assay [OCI-LY1] pDC50 mean ([1]; mean of replicates): 8.5622 | DC50 ([1]; read-out: Calculated free DC50 [OCI-Ly1], DC50 corrected with fu,media): 0.24 nM | DC50 ([1]; read-out: MSD degrader assay [OCI-LY1] DC50 individual replicates, single replicate values): 2.5 nM and 3 nM | DC50 ([1]; read-out: MSD degrader assay [OCI-Ly1] DC50, geometric mean, OCI-Ly1 cells, 2 h incubation): 2.7 nM | MSD degrader assay [OCI-LY1] Dmax individual replicates ([1]; single replicate values): 89.0% | Aq. Sol. (HPLC solubility assay): 13^f μM and 13 ^e μM | chromatographic logD [2]: 3.2 | BCL6 TR-FRET pIC50 mean (human BCL6 BTB domain [3]; mean of replicates): 8.8118 | IC50 (human BCL6 BTB domain [3]; read-out: BCL6 TR-FRET IC50, geometric mean, BCOR-AF633 peptide, 2 h incubation): 1.5 nM | fraction unbound (in vitro [4]; bovine, read-out: fu,media): 0.088 | PAMPA (pH 7.4) (in vitro [5]): 21 ×10–6 cm s–1 | microsomal CLint at 0.5 h, 1 µM [6]: 14 µL/min/mg | microsomal CLint at 0.5 h, 1 µM [7]: 9 µL/min/mg | microsomal CLint at 0.5 h, 1 µM ([8]; female, CD1, pH 7.4): 142 µL/min/mg | IC50 (human BCL6 BTB domain [9]): 1.3 nM and 2.2 nM (2×) and 0.9 nM and 4 nM

C[C@@H]1CN(c2ncc(Cl)c(Nc3ccc4c(c3)n(CCC(C)(C)O)c(=O)n4C)n2)C[C@H](C)C1(F)F [2 CCT369260, 5-((5-Chloro-2-((3R,5S)-4,4-difluoro-3,5-dimethylpiperidin-1-yl)pyrimidin-4-yl)amino)-3-(3-hydroxy-3-methylbutyl)-1-methyl-1,3-dihydro-2H-benzo[d]imidazol-2-one]
Dmax [1, 12]: 99.3% | chromatographic logD [2]: 4.3 | fu,media (in vitro [4]): 0.022 | fraction unbound (in vitro [10]): 0.0004 | solubility kinetic at 20 h (NMR solubility assay): 11 µM (≈ 5.6 µg/mL) | PAMPA (pH 7.4) (in vitro [5]): 33 ×10–6 cm s–1 | microsomal CLint at 0.5 h, 1 µM [6]: 11 µL/min/mg | microsomal CLint at 0.5 h, 1 µM [7]: 10 µL/min/mg | CLint (MLM) [8]: 78 μL/min/mg protein | CL as % Qh [11]: 22 % Qh | CL ([11]; 1 mg/kg i.v.): 1.19 L/h/kg | Vd ([11]; mouse, in vivo, 1 mg/kg, read-out: Vss): 2.1 L/kg | half-life at 6 h ([11]; mouse, in vivo, po, 5 mg/kg): 1.4 h | Cmax ([11]; mouse, in vivo, 1 mg/kg i.v. and 5 mg/kg p.o.): 1580 nM | F ([11]; oral bioavailability, 5 mg/kg p.o. vs 1 mg/kg i.v.): 54% | CLu ([11]; unbound clearance): 2803.9 L/h/kg
